These results are taken from patent US6117840A, “CS-1 peptidomimetics, compositions and methods of using the same” (Cytel Corporation, priority 1997, dated 2000).

Square brackets hold non-standard residues; d marks the D form. Peptide text beside a SMILES is read from it. * marks the point of attachment. NHOctadecyl = CCCCCCCCCCCCCCCCCCN*; NHPhenethyl = c1ccc(CCN*)cc1; PhAc = O=C(Cc1ccccc1)*; Ahx = NCCCCCC(=O)O; NHNH2 = NN* A value given as a limit tells only on which side of the number the result lay.

Data set [1] has as its system Jurkat T cell line. Briefly: Binding of Jurkat cells to frozen human RA synovial sections. The format is cell-based. The following applies: 10-mer at 500 μg/ml; inhibitor peptide at its IC50. Here is the method:
Binding studies were carried out using the Jurkat T cell line and frozen RA synovial sections. […] Stimulated MOLT-4 cells behaved similarly.

The target in data set [2] is T1, VLA-4 (Homo sapiens, UniProt P05556+P13612).
T1 construct: host or cells: Jurkat (human T lymphoblastic line)
T1 sequence (P13612 34-1032): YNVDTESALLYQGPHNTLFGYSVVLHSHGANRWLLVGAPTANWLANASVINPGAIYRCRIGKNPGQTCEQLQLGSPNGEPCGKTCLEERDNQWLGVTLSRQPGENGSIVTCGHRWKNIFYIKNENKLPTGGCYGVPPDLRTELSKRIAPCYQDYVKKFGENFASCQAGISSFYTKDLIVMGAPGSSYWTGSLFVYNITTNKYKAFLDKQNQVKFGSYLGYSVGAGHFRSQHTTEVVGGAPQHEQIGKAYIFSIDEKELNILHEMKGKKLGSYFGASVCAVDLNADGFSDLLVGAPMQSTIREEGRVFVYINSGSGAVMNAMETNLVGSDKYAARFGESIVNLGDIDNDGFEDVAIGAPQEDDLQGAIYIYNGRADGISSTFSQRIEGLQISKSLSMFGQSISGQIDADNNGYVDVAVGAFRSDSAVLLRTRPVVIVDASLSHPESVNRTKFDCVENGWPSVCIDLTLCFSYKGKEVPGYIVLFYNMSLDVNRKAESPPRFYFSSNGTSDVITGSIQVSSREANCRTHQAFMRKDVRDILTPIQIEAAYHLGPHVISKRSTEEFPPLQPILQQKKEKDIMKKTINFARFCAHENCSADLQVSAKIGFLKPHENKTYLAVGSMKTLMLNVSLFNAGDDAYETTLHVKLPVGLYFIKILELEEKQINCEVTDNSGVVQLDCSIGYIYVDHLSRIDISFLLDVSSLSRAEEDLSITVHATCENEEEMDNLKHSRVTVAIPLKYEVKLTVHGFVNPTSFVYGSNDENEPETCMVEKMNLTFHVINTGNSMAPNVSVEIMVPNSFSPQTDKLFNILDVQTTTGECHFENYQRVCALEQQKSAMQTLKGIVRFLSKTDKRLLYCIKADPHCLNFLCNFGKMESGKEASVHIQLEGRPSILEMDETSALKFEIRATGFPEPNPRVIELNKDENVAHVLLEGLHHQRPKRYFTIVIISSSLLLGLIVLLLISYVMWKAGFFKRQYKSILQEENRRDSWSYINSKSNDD
T1 sequence (P05556 21-798): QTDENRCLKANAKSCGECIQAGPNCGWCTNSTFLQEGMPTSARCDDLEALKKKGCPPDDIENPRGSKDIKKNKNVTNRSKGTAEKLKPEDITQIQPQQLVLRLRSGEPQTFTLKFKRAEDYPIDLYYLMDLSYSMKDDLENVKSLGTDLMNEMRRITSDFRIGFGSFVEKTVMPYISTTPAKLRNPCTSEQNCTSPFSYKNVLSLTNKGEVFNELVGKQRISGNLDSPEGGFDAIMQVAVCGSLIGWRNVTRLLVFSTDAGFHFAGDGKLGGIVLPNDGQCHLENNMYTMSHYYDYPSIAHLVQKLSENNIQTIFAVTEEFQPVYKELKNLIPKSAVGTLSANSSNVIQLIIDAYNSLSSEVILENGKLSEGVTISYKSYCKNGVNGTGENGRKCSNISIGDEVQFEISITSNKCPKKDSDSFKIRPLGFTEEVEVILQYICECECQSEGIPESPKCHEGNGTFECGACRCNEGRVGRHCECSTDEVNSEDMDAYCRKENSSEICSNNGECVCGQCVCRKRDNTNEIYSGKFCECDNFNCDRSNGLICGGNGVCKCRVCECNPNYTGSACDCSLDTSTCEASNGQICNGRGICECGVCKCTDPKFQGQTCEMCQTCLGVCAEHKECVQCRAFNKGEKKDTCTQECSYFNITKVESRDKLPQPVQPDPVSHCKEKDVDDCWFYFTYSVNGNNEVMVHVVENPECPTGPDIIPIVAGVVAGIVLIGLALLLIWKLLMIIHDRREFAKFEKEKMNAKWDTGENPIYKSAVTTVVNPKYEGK
Format: cell-based. To be noted: relative to standard peptide SEQ ID NO:3 (=1), normalized IC50; about one-tenth or less of SEQ ID NO:3 assigned zero. Here is the method:
Binding inhibition is measured here as a concentration of peptide that inhibits one-half the binding between a standard number of Jurkat cells and a standard amount of CS-1 peptide bound to the surface of a microtiter plate well. Those concentrations are conveniently expressed as IC50 values, smaller numbers indicating a lower concentration required to inhibit 50 percent binding and therefore greater potency. Further specifics of this assay are provided hereinafter.
Jurkat cells (ATCC TIB 152), a human T lymphoblastic line, labeled with ^51 chromium were used to assay in vitro binding inhibition provided by various peptides discussed herein.
The plates were prepared as follows: The 25-mer CS1 peptide (SEQ ID NO:1) dissolved at 0.5-1 μg/ml in a buffer of 0.1M NaHCO3 at pH 9.5 tha also contained 10 μg/ml of bovine serum albumin (BSA) or a conjugate o the CS1 peptide linked to ovalbumin (CS1-OVA) dissolved at 1-2.5 μg/ml in the same buffer was used as the substrate. Each well of the microtiter plates was coated with 50 μl of substrate or buffer alone for controls The wells were permitted to dry out completely and were then rinsed twice with PBS at pH 7.4. Nonspecific binding sites of each well were then blocked using 200 μl per well of RPMI/1 percent BSA for two hours at room temperature. Both solid phaseaffixed substrates provided similar results.
Jurkat cells (3-5×10^6 cells) were placed into a 15 ml Falcon.TM roundbottom tube with a cap. The tube was centrifuged, and the extra medium was then removed.
Two hundred microliters of a ^51 Cr labeling solution were added to th centrifuged cells and maintained in contact with the cells for 90-120 minutes in a warm room. This procedure typically provides about 50,000-100,000 cpm/well with about 80-100 percent cell viability. Longer contact times provide a greater amount of labeling but lower cell viability.
The labeled cells are washed with (i) complete medium, (ii) 1 mM EDTA/PBS and then (iii) RPMI/1 percent BSA free of serum components. The cells are centrifuged after each washing. The cells are finally resuspended in serumfree RPMI/1 percent BSA at a concentration of 1×10^6 viabl cells/ml, which provides a concentration that is diluted by onehalf in th assay.
Inhibitor peptides are prepared as stock solutions at 20 mg/ml in DMSO in 1.5 ml cryogenic screwcap vials, and were stored at -70° C. Using Flow™ roundbottom or Vbottom microtiter plates, the inhibitor peptides were prepared at twice the assay concentration in RPMI/1 percent BSA at 6 μl/well.
Four initial dilutions were typically used.
The ^51 Crlabeled cells (1×10^6 cells at 60 μl/well) were then admixed with the diluted peptide solutions. The admixtures were maintained at room temperature (about 22° C.) for 30 minutes.
One hundred microliters of each inhibitor peptide/cell admixture were transferred to the substratecoated wells. This was done in triplicate for each dilution. The resulting plates were incubated for 30 minutes at 37° C. and then washed gently three times with RPMI/1 percent BSA at 200 μl/well. Binding was observed microscopically, particularly after the second wash.
The bound cells were then lysed by the addition of a 0.5 percent solution of sodium dodecylsulfate in water at 100 μl/well. The resulting solutions were then processed for counting and calculation of IC50 values following usual procedures. Appropriate positive and negative controls were used with each plate so that the results of separate assays could be normalized and compared.

A short description of data set [3]: Water solubility. Format: physicochemical. The following applies: forms a turbid dispersion rather than a solution.

For the compound `CC[C@H](C)[C@H](NC(=O)[C@H](CCC(=O)O)NC(=O)[C@@H]1CCCN1C(=O)CN)C(=O)N[C@@H](CC(C)C)C(=O)N[C@@H](CC(=O)O)C(=O)N[C@H](C(=O)N1CCC[C@H]1C(=O)N[C@@H](CO)C(=O)N[C@H](C(=O)O)[C@@H](C)O)C(C)C` [G P E I L D V P S T free amine free acid, GPEILDVPST] (H-GPEILDVPST-OH), in data set [1], the “inhibition of Jurkat cell adhesion to RA synovial sections” value was “could be inhibited”. As to `CC(C)C[C@H](NC(=O)Cc1ccccc1)C(=O)N[C@@H](CC(=O)O)C(=O)N(Cc1ccccc1)Cc1ccccc1` [X L D Z phenylacetyl dibenzylamide], the “RELATIVE POTENCY (inhibition of VLA-4 binding CS-1)” value in data set [2] amounted to 0.

As for `CC(C)C[C@H](NC(=O)Cc1ccccc1)C(=O)N[C@@H](CC(=O)O)C(=O)NN` [X L D Z phenylacetyl hydrazide] (PhAc-Leu-Asp-NHNH2), the “RELATIVE POTENCY (inhibition of VLA-4 binding CS-1)” value in data set [2] was less than 1. The same measure, in the same setting: the result for `CC(C)C[C@H](NC(=O)Cc1ccccc1)C(=O)N[C@@H](CC(=O)O)C(=O)NCCc1ccccc1` [X L D Z phenylacetyl phenethylamide] (PhAc-Leu-Asp-NHPhenethyl) reads 19. For `CCCCCCCCCCCCCCCCCCNC(=O)CCCCCNC(=O)[C@@H]1CCCN1C(=O)[C@H](Cc1ccccc1)NC(=O)[C@H](CC(=O)O)NC(=O)[C@H](CC(C)C)NC(=O)Cc1ccccc1` [phenylacetyl--Leu--Asp--Phe--Pro--NH(CH2)5 C(O)NHC18 H37] (PhAc-LDFP[Ahx]-NHOctadecyl; C-terminus assumed), the water solubility result in data set [3] was “not water-soluble”.
